Assay results reported in patent US3956068A, “Antibiotic G-52 and method for the production thereof” (Schering Corporation, priority 1975, dated 1976).
Structures can show the parent of a compound that is named as a salt.

Key:
[1] = tested on: Staphylococcus aureus A.T.C.C. 6538P; assay: Microbiological assay, standard disc plate assay; type: cell-based; settings: against the standard antibiotic base (1000 mcg/mg)
Source text: 6538P as the test organism.

[2] = tested on: Pseudomonas aeruginosa 130 - GR; assay: In vitro antibacterial activity, minimum inhibitory concentration; type: cell-based; settings: Tryptose phosphate broth at pH 7.2
Source text: (§1) In vitro Antibacterial Activity
(§2) Minimum Inhibitory Concentration
(§3) Test Medium: Tryptose phosphate broth at pH 7.2.

[3] = tested on: Staphylococcus aureus 209P; assay: as above; type: cell-based; settings: Tryptose phosphate broth at pH 7.2
Source text: as §1, §2, §3

Streptococcus pyogenes C = assay: as above; type: cell-based; settings: Tryptose phosphate broth at pH 7.2
Source text: as §1, §2, §3

Escherichia coli 578 = assay: as above; type: cell-based; settings: Tryptose phosphate broth at pH 7.2
Source text: as §1, §2, §3

Escherichia coli 11775 = assay: as above; type: cell-based; settings: Tryptose phosphate broth at pH 7.2
Source text: as §1, §2, §3

[4] = tested on: Klebsiella pneumoniae Ad 17 - kR; assay: as above; type: cell-based; settings: Tryptose phosphate broth at pH 7.2
Source text: as §1, §2, §3

Staphylococcus aureus 45 = assay: as above; type: cell-based; settings: Tryptose phosphate broth at pH 7.2
Source text: as §1, §2, §3

[5] = tested on: Salmonella paratyphi 13311; assay: as above; type: cell-based; settings: Tryptose phosphate broth at pH 7.2
Source text: as §1, §2, §3

Proteus mirabilis 8019 = assay: as above; type: cell-based; settings: Tryptose phosphate broth at pH 7.2
Source text: as §1, §2, §3

[6] = tested on: Pseudomonas aeruginosa 236 - GR; assay: as above; type: cell-based; settings: Tryptose phosphate broth at pH 7.2
Source text: as §1, §2, §3

Escherichia coli = assay: In vivo protective activity in mice; parameters: species or system Mice (Carworth Farms CF-1); settings: S.C., single dose of antibiotic (sulfate) 1 hour after intraperitoneal infection, survivors at 48 hours
Procedure: (§4) In vivo Activity of Antibiotic G-52 in Mice
(§5) ^a Mice (Carworth Farms CF-1 weighing about 18 - 20 grams) are treate
(§6) with a single dose of antibiotic (sulfate) one (1) hour after an
(§7) intraperitoneal infection with a lethal (10^7 organisms) quantity of
(§8) the infectious organism. The number of survivors are determined 48 hours
(§9) after infection and the data analyzed by standard probit procedures to
(§10) determine the PD50 values with 95% confidence limits.

Pseudomonas aeruginosa = assay: In vivo protective activity in mice; parameters: species or system Mice (Carworth Farms CF-1); settings: S.C., single dose of antibiotic (sulfate) 1 hour after intraperitoneal infection, survivors at 48 hours
Procedure: as §4, §5, §6, §7, §8, §9, §10

[7] = tested on: Staphylococcus aureus Gray; assay: In vivo protective activity in mice; parameters: species or system Mice (Carworth Farms CF-1); settings: S.C., single dose of antibiotic (sulfate) 1 hour after intraperitoneal infection, survivors at 48 hours
Procedure: as §4, §5, §6, §7, §8, §9, §10

mice (CF-1) = assay: Acute toxicity in mice; type: in vivo; settings: sulfate salt
Procedure: ^b The acute toxicity of Antibiotic G-52 in the form of the sulfate
salt is determined in the standard manner by administration of the
antibiotic to mice (CF-1) intravenously, subcutaneously and
intraperitoneally. The results are analyzed by standard probit procedures
to determine the LD50 values with 95% confidence limits.

[8] = Stability to boiling in buffer; type: physicochemical
Source text: Further, the antibiotic is stable to boiling for at least thirty (30) minutes in MacIlvaines buffer from pH 2 - 8 and in sodium hydroxide-boric acid buffer from pH 8 - 10.

CNCC1=CCC(N)C(OC2C(N)CC(N)C(OC3OCC(C)(O)C(NC)C3O)C2O)O1 (centres unmarked) [Antibiotic G-52 sulfate]
potency (microbiological assay) [1]: about 675 mcg/mg
potency (microbiological assay) ([1]; listed as Antibiotic G-52 Sulfate): 660 mcg/mg

CNCC1=CC[C@@H](N)[C@@H](O[C@H]2[C@H](O)[C@@H](O[C@H]3OC[C@](C)(O)[C@H](NC)[C@H]3O)[C@H](N)C[C@@H]2N)O1 [Antibiotic G-52]
potency (microbiological assay) ([1]; listed as Antibiotic G-52 Base): about 1000 mcg/mg
Minimum Inhibitory Concentration (MIC) [2]: 25 µg/mL
Minimum Inhibitory Concentration (MIC) [3]: 0.3 µg/mL
Minimum Inhibitory Concentration (MIC) (Streptococcus pyogenes C): 25 µg/mL
Minimum Inhibitory Concentration (MIC) (Escherichia coli 578): 7.5 µg/mL
Minimum Inhibitory Concentration (MIC) (Escherichia coli 11775): 3.0 µg/mL
Minimum Inhibitory Concentration (MIC) [4]: 0.8 µg/mL
Minimum Inhibitory Concentration (MIC) (Staphylococcus aureus 45): 0.8 µg/mL
Minimum Inhibitory Concentration (MIC) [5]: 17.5 µg/mL
Minimum Inhibitory Concentration (MIC) (Proteus mirabilis 8019): 7.5 µg/mL
Minimum Inhibitory Concentration (MIC) [6]: 25 µg/mL
solubility in polar organic solvents (Solubility; lower alcohols, dimethylformamide, dimethylsulfoxide, pyridine): some degree of solubility in most polar organic solvents
solubility in water (Solubility; water): very soluble in water
PD50 (Escherichia coli): 2.5 mg/kg
PD50 (Pseudomonas aeruginosa): 1.5 mg/kg
PD50 [7]: 2.5 mg/kg
LD50 (mice (CF-1); I.P.): 200 mg/kg
LD50 (mice (CF-1); I.V.): 50 mg/kg
LD50 (mice (CF-1); S.C.): 400 mg/kg
stable to boiling ([8]; MacIlvaines buffer, pH 2 - 8): ≥ 30 min
stable to boiling ([8]; sodium hydroxide-boric acid buffer, pH 8 - 10): ≥ 30 min
